Measured values from patent US8278345B2, “Inhibitors of glutaminyl cyclase” (Probiodrug AG, priority 2006, dated 2012).
Read-outs that look alike come from different tables or passages of the source.

Target: hQC (Homo sapiens, UniProt Q16769)
Experiment: Inhibitor assay for glutaminyl cyclase activity (fluorometric, H-Gln-βNA / H-Gln-AMC)
Assay type: biochemical
Experimental: All measurements were performed with a BioAssay Reader HTS-7000Plus for microplates (Perkin Elmer) at 30° C. QC activity was evaluated fluorometrically using H-Gln-βNA. The samples consisted of 0.2 mM fluorogenic substrate, 0.25 U pyroglutamyl aminopeptidase (Unizyme, Hørsholm, Denmark) in 0.2 M Tris/HCl, pH 8.0 containing 20 mM EDTA and an appropriately diluted aliquot of QC in a final volume of 250 μl. Excitation/emission wavelengths were 320/410 nm. The assay reactions were initiated by addition of glutaminyl cyclase. QC activity was determined from a standard curve of β-naphthylamine under assay conditions. One unit is defined as the amount of QC catalyzing the formation of 1 μmol pGlu-βNA from H-Gln-βNA per minute under the described conditions.
In a second fluorometric assay, QC activity was determined using H-Gln-AMC as substrate. Reactions were carried out at 30° C. utilizing the NOVOStar reader for microplates (BMG labtechnologies). The samples consisted of varying concentrations of the fluorogenic substrate, 0.1 U pyroglutamyl aminopeptidase (Qiagen) in 0.05 M Tris/HCl, pH 8.0 containing 5 mM EDTA and an appropriately diluted aliquot of QC in a final volume of 250 μl. Excitation/emission wavelengths were 380/460 nm. The assay reactions were initiated by addition of glutaminyl cyclase. QC activity was determined from a standard curve of 7-amino-4-methylcoumarin under assay conditions. The kinetic data were evaluated using GraFit sofware.
For inhibitor testing, the sample composition was the same as described above, except of the putative inhibitory compound added. For a rapid test of QC-inhibition, samples contained 4 mM of the respective inhibitor and a substrate concentration at 1 KM. For detailed investigations of the inhibition and determination of Ki-values, influence of the inhibitor on the auxiliary enzymes was investigated first. In every case, there was no influence on either enzyme detected, thus enabling the reliable determination of the QC inhibition. The inhibitory constant was evaluated by fitting the set of progress curves to the general equation for competitive inhibition using GraFit software.

[1] = compound from preparative synthesis, purified, read-out: IC50 hQC

Sequence of hQC (Q16769 29-361): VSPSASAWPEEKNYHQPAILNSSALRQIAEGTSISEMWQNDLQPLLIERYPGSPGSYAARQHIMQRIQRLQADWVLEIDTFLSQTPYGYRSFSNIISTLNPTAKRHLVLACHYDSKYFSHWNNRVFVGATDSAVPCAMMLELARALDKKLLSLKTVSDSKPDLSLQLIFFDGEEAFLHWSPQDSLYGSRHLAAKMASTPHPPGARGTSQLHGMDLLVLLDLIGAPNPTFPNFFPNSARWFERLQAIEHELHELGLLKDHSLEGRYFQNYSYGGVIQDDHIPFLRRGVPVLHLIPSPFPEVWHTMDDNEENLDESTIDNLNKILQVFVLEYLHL

| IC50 (read-out: IC50) | IC50 [1] | Compound |
| --- | --- | --- |
| 4540 nM |  | O=C(O)CC1=C(O)C(=O)N(c2ccc3[nH]cnc3c2)C1c1cccc(F)c1 (stereo not shown) [Compound 311, [1-(1H-Benzoimidazol-5-yl)-2-(3-fluoro-phenyl)-4-hydroxy-5-oxo-2,5-dihydro-1H-pyrrol-3-yl]-acetic acid] |
| 400 nM |  | O=C(O)c1ccc(C2C(C(=O)C3CC3)=C(O)C(=O)N2c2ccc3[nH]cnc3c2)o1 (stereo not shown) [Compound 308, 5-[1-(1H-Benzoimidazol-5-yl)-3-cyclopropanecarbonyl-4-hydroxy-5-oxo-2,5-dihydro-1H-pyrrol-2-yl]-furan-2-carboxylic acid] |
| 4000 nM |  | CC(C)CC(=O)C1=C(O)C(=O)N(c2ccc3[nH]cnc3c2)C1c1c[nH]cn1 (stereo not shown) [Compound 461, 1-(1H-Benzoimidazol-5-yl)-3-hydroxy-5-(1H-imidazol-4-yl)-4-(3-methyl-butyryl)-1,5-dihydro-pyrrol-2-one] |
| 4000 nM |  | CCCCCC(=O)C1=C(O)C(=O)N(c2ccc3[nH]cnc3c2)C1CC (stereo not shown) [Compound 463, 1-(1H-Benzoimidazol-5-yl)-5-ethyl-4-hexanoyl-3-hydroxy-1,5-dihydro-pyrrol-2-one] |
| 4 nM | 8.7 nM | CC(=O)C1=C(O)C(=O)N(c2ccc3[nH]cnc3c2)C1c1ccc2nsnc2c1 (stereo not shown) [Compound 376, 4-Acetyl-1-(1H-benzoimidazol-5-yl)-5-benzo[c][1,2,5]thiadiazol-5-yl-3-hydroxy-1,5-dihydro-pyrrol-2-one] |
| 4090 nM |  | CC(C)(C)C(=O)C1=C(O)C(=O)N(c2ccc3[nH]cnc3c2)C1c1ccco1 (stereo not shown) [Compound 419, 1-(1H-Benzoimidazol-5-yl)-4-(2,2-dimethyl-propionyl)-5-furan-2-yl-3-hydroxy-1,5-dihydro-pyrrol-2-one] |
| 1840 nM |  | CC(=O)C1=C(O)C(=O)N(c2ccc3[nH]cnc3c2)C1C1=CCCCC1 (stereo not shown) [Compound 312, 4-Acetyl-1-(1H-benzoimidazol-5-yl)-5-cyclohex-1-enyl-3-hydroxy-1,5-dihydro-pyrrol-2-one] |
| 6970 nM |  | CCC1=C(O)C(=O)N(c2ccc3[nH]cnc3c2)C1c1c(F)c(F)cc(F)c1F (stereo not shown) [Compound 400, 1-(1H-Benzoimidazol-5-yl)-4-ethyl-3-hydroxy-5-(2,3,5,6-tetrafluoro-phenyl)-1,5-dihydro-pyrrol-2-one] |
| 6250 nM |  | Cn1cc(C2C(c3c[nH]c4ccccc34)=C(O)C(=O)N2c2ccc3[nH]cnc3c2)c2ccccc21 (stereo not shown) [Compound 329, 1-(1H-Benzoimidazol-5-yl)-3-hydroxy-4-(1H-indol-3-yl)-5-(1-methyl-1H-indol-3-yl)-1,5-dihydro-pyrrol-2-one] |
| 40 nM |  | O=C1C(O)=C(c2ccccc2)C(c2ccc3cccc(O)c3n2)N1c1ccc2[nH]cnc2c1 (stereo not shown) [Compound 398, 1-(1H-Benzoimidazol-5-yl)-3-hydroxy-5-(8-hydroxy-quinolin-2-yl)-4-phenyl-1,5-dihydro-pyrrol-2-one] |

The remaining lines, values behind:

| Compound | IC50 (read-out: IC50) | IC50 [1] |
| --- | --- | --- |
| Cc1cc(C2C(c3ccc(O)cc3)=C(O)C(=O)N2c2ccc3[nH]cnc3c2)oc1C (stereo not shown) [Compound 271, 1-(1H-Benzoimidazol-5-yl)-5-(4,5-dimethyl-furan-2-yl)-3-hydroxy-4-(4-hydroxy-phenyl)-1,5-dihydro-pyrrol-2-one] | 1390 nM |  |
| O=C1C(O)=C(c2ccccc2)C(c2cccc(Cl)c2)N1CCCn1ccnc1 (stereo not shown) [Compound 109, 5-(3-Chloro-phenyl)-3-hydroxy-1-(3-imidazol-1-yl-propyl)-4-phenyl-1,5-dihydro-pyrrol-2-one] | 400 nM |  |
| CCCCCC1=C(O)C(=O)N(CCCn2ccnc2)C1CCCC (stereo not shown) [Compound 214, 5-Butyl-3-hydroxy-1-(3-imidazol-1-yl-propyl)-4-pentyl-1,5-dihydro-pyrrol-2-one] | 400 nM |  |
| Cc1ccc(C2C(c3ccc(O)cc3)=C(O)C(=O)N2CCCn2ccnc2)cc1 (stereo not shown) [Compound 148, 3-Hydroxy-4-(4-hydroxy-phenyl)-1-(3-imidazol-1-yl-propyl)-5-p-tolyl-1,5-dihydro-pyrrol-2-one] | 40 nM | 152 nM |
| CCCCC1C(c2c[nH]c3ccccc23)=C(O)C(=O)N1CCCn1ccnc1 (stereo not shown) [Compound 141, 5-Butyl-3-hydroxy-1-(3-imidazol-1-yl-propyl)-4-(1H-indol-3-yl)-1,5-dihydro-pyrrol-2-one] | 400 nM |  |
| O=C(C1=C(O)C(=O)N(c2ccc3[nH]cnc3c2)C1c1ccc(CO)o1)c1ccsc1 (stereo not shown) [Compound 263, 1-(1H-Benzoimidazol-5-yl)-3-hydroxy-5-(5-hydroxymethyl-furan-2-yl)-4-(thiophene-3-carbonyl)-1,5-dihydro-pyrrol-2-one] | 2020 nM |  |
| CCCCCC1=C(O)C(=O)N(CCCn2ccnc2)C1c1ccc(C)cc1 (stereo not shown) [Compound 184, 3-Hydroxy-1-(3-imidazol-1-yl-propyl)-4-pentyl-5-p-tolyl-1,5-dihydro-pyrrol-2-one] | 40 nM |  |
| O=C1C(O)=C(c2ccc(O)cc2)C(c2ncc[nH]2)N1CCCn1ccnc1 (stereo not shown) [Compound 168, 3-Hydroxy-4-(4-hydroxy-phenyl)-5-(1H-imidazol-2-yl)-1-(3-imidazol-1-yl-propyl)-1,5-dihydro-pyrrol-2-one] | 2200 nM |  |
| CCCC(=O)C1=C(O)C(=O)N(c2ccc3[nH]cnc3c2)C1c1ccc(C)o1 (stereo not shown) [Compound 256, 1-(1H-Benzoimidazol-5-yl)-4-butyryl-3-hydroxy-5-(5-methyl-furan-2-yl)-1,5-dihydro-pyrrol-2-one] | 4 nM | 203 nM |
| CCCCCC1=C(O)C(=O)N(CCCn2ccnc2)C1c1cccs1 (stereo not shown) [Compound 210, 3-Hydroxy-1-(3-imidazol-1-yl-propyl)-4-pentyl-5-thiophen-2-yl-1,5-dihydro-pyrrol-2-one] | 40 nM | 588 nM |
| CCCCC1C(C)=C(O)C(=O)N1CCCn1ccnc1 (stereo not shown) [Compound 48, 5-Butyl-3-hydroxy-1-(3-imidazol-1-yl-propyl)-4-methyl-1,5-dihydro-pyrrol-2-one] | 2200 nM |  |
| CC1C(c2c[nH]c3ccccc23)=C(O)C(=O)N1CCCn1ccnc1 (stereo not shown) [Compound 125, 3-Hydroxy-1-(3-imidazol-1-yl-propyl)-4-(1H-indol-3-yl)-5-methyl-1,5-dihydro-pyrrol-2-one] | 400 nM |  |
| CC1=C(O)C(=O)N(CCCn2ccnc2)C1Cc1ccccc1 (stereo not shown) [Compound 41, 5-Benzyl-3-hydroxy-1-(3-imidazol-1-yl-propyl)-4-methyl-1,5-dihydro-pyrrol-2-one] | 1300 nM |  |
| CCCCCC1C(c2ccc(O)cc2)=C(O)C(=O)N1CCCn1ccnc1 (stereo not shown) [Compound 159, 3-Hydroxy-4-(4-hydroxy-phenyl)-1-(3-imidazol-1-yl-propyl)-5-pentyl-1,5-dihydro-pyrrol-2-one] | 40 nM |  |
| O=C1C(O)=C(c2ccc(O)cc2)C(C(O)CO)N1CCCn1ccnc1 (stereo not shown) [Compound 152, 5-(1,2-Dihydroxy-ethyl)-3-hydroxy-4-(4-hydroxy-phenyl)-1-(3-imidazol-1-yl-propyl)-1,5-dihydro-pyrrol-2-one] | 400 nM |  |
| O=C1C(O)=C(c2ccc(O)cc2)C(c2c(O)ccc3ccccc23)N1CCCn1ccnc1 (stereo not shown) [Compound 170, 3-Hydroxy-5-(2-hydroxy-naphthalen-1-yl)-4-(4-hydroxy-phenyl)-1-(3-imidazol-1-yl-propyl)-1,5-dihydro-pyrrol-2-one] | 1300 nM |  |
| CCCCCC1=C(O)C(=O)N(CCCn2ccnc2)C1C (stereo not shown) [Compound 197, 3-Hydroxy-1-(3-imidazol-1-yl-propyl)-5-methyl-4-pentyl-1,5-dihydro-pyrrol-2-one] | 40 nM |  |
